Values quoted from earlier work in patent publication US20050014769A1, “Use of endothelin receptor antogonists for the treatment of tumour diseases” (priority 2001, published 2005).
Square brackets hold non-standard residues; d marks the D form. Peptide text beside a SMILES is read from it.

Experiments:
[1] = tested on: prostate cancer cell lines; details: in vitro; Nelson J B et al. Cancer Research 56, 663-668, 1996
melanoma cells = details: in vitro; AACR Abstract No. 358, 2002
[2] = tested on: HPV positive cervical carcinomas; details: cervical carcinoma; Venuti A et al., FASEB 14/14, 2279-2283, 2000
[3] = tested on: primary ovarian carcinoma cells; details: Bagnato A et al. Cancer Res 59, 720-727, 1999
ovarian carcinoma cells = details: Del Bufalo D et al., Molecular Pharmacology 61/3, 2002
metastasis formation = details: rat metastasis model; Asham E et al. British Journal of Cancer 81/11, 2001
[4] = tested on: intestinal cancer cell lines; details: Ali H et al. Gut 47, 685-688, 2000
[5] = tested on: pancreas tumour cells (ASPC-1); details: in vivo; AACR Abstract No. 3365, 2000

Q: For `CCCCN(CCCC)C(=O)CN1C[C@H](c2ccc3c(c2)OCO3)[C@@H](C(=O)O)[C@@H]1c1ccc(OC)cc1` [Atrasentan], which “growth of various prostate cancer cell lines” value [1] is on record?
A: inhibits the growth

Q: Which “proliferation of melanoma cells” value (melanoma cells) does the source give for `COc1ccccc1Oc1c(NS(=O)(=O)c2ccc(C(C)(C)C)cc2)nc(-c2ncccn2)nc1OCCO` [Bosetan] here?
A: inhibits the proliferation

Q: For `CC(C)C[C@@H]1NC(=O)[C@@H](C(C)C)NC(=O)[C@@H]2CCCN2C(=O)[C@@H](CC(=O)O)NC(=O)[C@@H](Cc2c[nH]c3ccccc23)NC1=O` [BQ123] (cyclo(L[dW][dD]P[dV])), which “ET-1 stimulated proliferation of tumour cells” value [2] is on record?
A: can be inhibited

Q: What about the “proliferation of tumour cells” value [3] of the same compound?
A: inhibits the proliferation

Q: And the “ET-1 protection against apoptosis” value (ovarian carcinoma cells)?
A: can be eliminated

Q: What about the metastasis formation (metastasis formation) of the same compound?
A: inhibits metastasis formation

Q: What about the “ET-1 stimulated proliferation of intestinal cancer cell lines” value [4] of the same compound?
A: can be inhibited

Q: For `COc1ccccc1Oc1c(NS(=O)(=O)c2ccc(C(C)C)cn2)nc(-c2ccnc(-c3nnn[nH]3)c2)nc1OCCO` [Ro 61-612/001], which “proliferation of pancreas tumour cells (ASPC-1)” value [5] is on record?
A: inhibits the proliferation
